Our source for the MIC values is ChEMBL document CHEMBL1909570, “Synthesis and antibacterial activity of N4-mono alkyl derivatives of novel glycopeptide LYV07ww01” (2011).

In brackets after ≈: the same amount, converted by molar mass.

Common to all, as to type: functional
Assay [1] concerns Enterococcus faecium. Kind of assay: Antibacterial activity against vancomycin-resistant Enterococcus faecium MEFA 0039 by CLSI agar microdilution method.
The test system of assay [2] is Streptococcus pneumoniae. Kind of assay: Antibacterial activity against penicillin-resistant Streptococcus pneumoniae MSPN 0003 by CLSI broth microdilution method. (In broth dilution the organism is exposed to a series of concentrations in liquid medium.)
In assay [3] the test system is Enterococcus faecium. Kind of assay: Antibacterial activity against vancomycin-sensitive Enterococcus faecium ATCC 35667 by CLSI agar microdilution method.
The test system of assay [4] is Staphylococcus aureus. Kind of assay: Antibacterial activity against Staphylococcus aureus 26003 by CLSI agar microdilution method.
The subject of assay [5] is Enterococcus faecium. Kind of assay: Antibacterial activity against Enterococcus faecium 32220 by CLSI agar microdilution method.
Assay [6] deals with Streptococcus pneumoniae. Kind of assay: Antibacterial activity against Streptococcus pneumoniae 31002 by CLSI agar microdilution method.
For assay [7], the system named is Staphylococcus epidermidis. Kind of assay: Antibacterial activity against Staphylococcus epidermidis 26069 by CLSI agar microdilution method.
Assay [8] has as its system Streptococcus pneumoniae. Kind of assay: Antibacterial activity against penicillin-intermediate Streptococcus pneumoniae ATCC 49619 by CLSI broth microdilution method.
Assay [9] concerns Enterococcus faecalis. Kind of assay: microbe, parasite or virus in culture. The following applies: ATCC 29212.
Description: Antibacterial activity against vancomycin-sensitive Enterococcus faecalis ATCC 29212 by CLSI agar microdilution method
In assay [10] the test system is Enterococcus faecalis. Kind of assay: microbe, parasite or virus in culture. The settings on record: ATCC 51299.
Description: Antibacterial activity against vancomycin-resistant Enterococcus faecalis ATCC 51299 by CLSI agar microdilution method
Assay [11] deals with Staphylococcus. Nature of the assay: Antibacterial activity against Staphylococcus albus 26101 by CLSI agar microdilution method.
In assay [12] the test system is Streptococcus. Kind of assay: Antibacterial activity against Streptococcus gamma 32206 by CLSI agar microdilution method.

As for `CN[C@H](CC(C)C)C(=O)N[C@H]1C(=O)N[C@@H](CC(N)=O)C(=O)N[C@H]2C(=O)N[C@H]3C(=O)N[C@H](C(=O)N[C@H](C(=O)O)c4cc(O)cc(O)c4-c4cc3ccc4O)[C@H](O)c3ccc(c(Cl)c3)Oc3cc2cc(c3O[C@@H]2O[C@H](CO)[C@@H](O)[C@H](O)[C@H]2O[C@H]2C[C@](C)(N)[C@H](O)[C@H](C)O2)Oc2ccc(cc2Cl)[C@H]1O.Cl` [VANCOMYCIN HYDROCHLORIDE], the MIC in assay [1] is more than 32 µg/mL; in [2] it was 0.25 µg/mL; in assay [3], 0.25 µg/mL; in [4] it was 0.78 µg/mL; in [5], 6.25 µg/mL; in assay [6], 0.39 µg/mL. The MIC is more than 25 µg/mL in [7]; 0.125 µg/mL in [8]; 1 µg/mL in assay [9]; 8 µg/mL in [10]; 3.13 µg/mL in assay [11]; 6.25 µg/mL in assay [12].
On to `CCCCCCCCCOc1ccc(CN[C@@]2(C)C[C@H](O[C@H]3[C@H](Oc4c5cc6cc4Oc4ccc(cc4Cl)[C@@H](O[C@H]4C[C@](C)(N)[C@H](O)[C@H](C)O4)[C@@H]4NC(=O)[C@H](NC(=O)[C@@H]6NC(=O)[C@H](CC(N)=O)NC(=O)[C@H](NC(=O)[C@@H](CC(C)C)NC)[C@H](O)c6ccc(c(Cl)c6)O5)c5ccc(O)c(c5)-c5c(O)cc(O)cc5[C@H](C(=O)O)NC4=O)O[C@H](CO)[C@@H](O)[C@@H]3O)O[C@@H](C)[C@H]2O)cc1`, for which the MIC in [4] is 12.5 µg/mL (≈ 6.85 µM); in assay [5] it was 12.5 µg/mL (≈ 6.85 µM); in assay [6], 12.5 µg/mL (≈ 6.85 µM); in assay [7], more than 25 µg/mL; in assay [11], 25 µg/mL (≈ 13.7 µM); in assay [12], 12.5 µg/mL (≈ 6.85 µM).
Turning to `CN[C@H](CC(C)C)C(=O)N[C@H]1C(=O)N[C@@H](CC(N)=O)C(=O)N[C@H]2C(=O)N[C@H]3C(=O)N[C@H](C(=O)N[C@@H](C(=O)O)c4cc(O)cc(O)c4-c4cc3ccc4O)[C@H](O[C@H]3C[C@](C)(N)[C@H](O)[C@H](C)O3)c3ccc(c(Cl)c3)Oc3cc2cc(c3O[C@@H]2O[C@H](CO)[C@@H](O)[C@H](O)[C@H]2O[C@H]2C[C@](C)(NCc3ccc(Oc4cccc(OC)c4)cc3)[C@H](O)[C@H](C)O2)Oc2ccc(cc2Cl)[C@H]1O`, the MIC was 3.13 µg/mL (≈ 1.73 µM) in [4]; 3.13 µg/mL (≈ 1.73 µM) in assay [5]; 3.13 µg/mL (≈ 1.73 µM) in [6]; more than 25 µg/mL in assay [7]; 3.13 µg/mL (≈ 1.73 µM) in assay [11]; 0.78 µg/mL (≈ 0.432 µM) in assay [12].
As to `CCCCCCCN[C@@]1(C)C[C@H](O[C@H]2[C@H](Oc3c4cc5cc3Oc3ccc(cc3Cl)[C@@H](O[C@H]3C[C@](C)(N)[C@H](O)[C@H](C)O3)[C@@H]3NC(=O)[C@H](NC(=O)[C@@H]5NC(=O)[C@H](CC(N)=O)NC(=O)[C@H](NC(=O)[C@@H](CC(C)C)NC)[C@H](O)c5ccc(c(Cl)c5)O4)c4ccc(O)c(c4)-c4c(O)cc(O)cc4[C@H](C(=O)O)NC3=O)O[C@H](CO)[C@@H](O)[C@@H]2O)O[C@@H](C)[C@H]1O`, the MIC in [4] was 1.56 µg/mL (≈ 0.923 µM); in assay [5], more than 25 µg/mL; in [6], 0.78 µg/mL (≈ 0.461 µM); in assay [7], more than 25 µg/mL; in [11] it was 1.56 µg/mL (≈ 0.923 µM); in assay [12], 1.56 µg/mL (≈ 0.923 µM).
In the case of `CN[C@H](CC(C)C)C(=O)N[C@H]1C(=O)N[C@@H](CC(N)=O)C(=O)N[C@H]2C(=O)N[C@H]3C(=O)N[C@H](C(=O)N[C@@H](C(=O)O)c4cc(O)cc(O)c4-c4cc3ccc4O)[C@H](O[C@H]3C[C@](C)(N)[C@H](O)[C@H](C)O3)c3ccc(c(Cl)c3)Oc3cc2cc(c3O[C@@H]2O[C@H](CO)[C@@H](O)[C@H](O)[C@H]2O[C@H]2C[C@](C)(NCc3cc(F)c(F)cc3F)[C@H](O)[C@H](C)O2)Oc2ccc(cc2Cl)[C@H]1O`, the MIC in assay [4] stood at 1.56 µg/mL (≈ 0.898 µM); in assay [5], 1.56 µg/mL (≈ 0.898 µM); in [6], 1.56 µg/mL (≈ 0.898 µM); in assay [7], 12.5 µg/mL (≈ 7.2 µM); in assay [11], 3.13 µg/mL (≈ 1.8 µM); in assay [12], 12.5 µg/mL (≈ 7.2 µM).
Regarding `CN[C@H](CC(C)C)C(=O)N[C@H]1C(=O)N[C@@H](CC(N)=O)C(=O)N[C@H]2C(=O)N[C@H]3C(=O)N[C@H](C(=O)N[C@@H](C(=O)O)c4cc(O)cc(O)c4-c4cc3ccc4O)[C@H](O[C@H]3C[C@](C)(N)[C@H](O)[C@H](C)O3)c3ccc(c(Cl)c3)Oc3cc2cc(c3O[C@@H]2O[C@H](CO)[C@@H](O)[C@H](O)[C@H]2O[C@H]2C[C@](C)(NCc3ccc(Cl)cc3Cl)[C@H](O)[C@H](C)O2)Oc2ccc(cc2Cl)[C@H]1O`, the MIC in assay [4] is 3.13 µg/mL (≈ 1.79 µM); in assay [5], 1.56 µg/mL (≈ 0.891 µM); in assay [6] it was 3.13 µg/mL (≈ 1.79 µM); in assay [7], 25 µg/mL (≈ 14.3 µM); in assay [11] it was 3.13 µg/mL (≈ 1.79 µM); in assay [12], 1.56 µg/mL (≈ 0.891 µM).
Turning to `CN[C@H](CC(C)C)C(=O)N[C@H]1C(=O)N[C@@H](CC(N)=O)C(=O)N[C@H]2C(=O)N[C@H]3C(=O)N[C@H](C(=O)N[C@@H](C(=O)O)c4cc(O)cc(O)c4-c4cc3ccc4O)[C@H](O[C@H]3C[C@](C)(N)[C@H](O)[C@H](C)O3)c3ccc(c(Cl)c3)Oc3cc2cc(c3O[C@@H]2O[C@H](CO)[C@@H](O)[C@H](O)[C@H]2O[C@H]2C[C@](C)(NCc3ccc(Oc4ccc(OC)cc4)cc3)[C@H](O)[C@H](C)O2)Oc2ccc(cc2Cl)[C@H]1O`, the MIC in assay [4] is 1.56 µg/mL (≈ 0.864 µM); in assay [5] it was 1.56 µg/mL (≈ 0.864 µM); in assay [6] it was 1.56 µg/mL (≈ 0.864 µM); in [7], more than 25 µg/mL; in [11], 3.13 µg/mL (≈ 1.73 µM); in [12], 1.56 µg/mL (≈ 0.864 µM).
With `CN[C@H](CC(C)C)C(=O)N[C@H]1C(=O)N[C@@H](CC(N)=O)C(=O)N[C@H]2C(=O)N[C@H]3C(=O)N[C@H](C(=O)N[C@@H](C(=O)O)c4cc(O)cc(O)c4-c4cc3ccc4O)[C@H](O[C@H]3C[C@](C)(N)[C@H](O)[C@H](C)O3)c3ccc(c(Cl)c3)Oc3cc2cc(c3O[C@@H]2O[C@H](CO)[C@@H](O)[C@H](O)[C@H]2O[C@H]2C[C@](C)(NCc3ccc(-c4ccccc4)cc3)[C@H](O)[C@H](C)O2)Oc2ccc(cc2Cl)[C@H]1O`, the MIC in assay [4] amounted to 3.13 µg/mL (≈ 1.78 µM); in assay [5], 1.56 µg/mL (≈ 0.887 µM); in assay [6] it was 1.56 µg/mL (≈ 0.887 µM); in assay [7] it was 6.25 µg/mL (≈ 3.55 µM); in assay [11] it was 1.56 µg/mL (≈ 0.887 µM); in assay [12], 0.78 µg/mL (≈ 0.444 µM).
Turning to `CCCCCCCCCCNCCN[C@@]1(C)C[C@H](O[C@H]2[C@H](Oc3c4cc5cc3Oc3ccc(cc3Cl)[C@@H](O[C@H]3C[C@](C)(N)[C@H](O)[C@H](C)O3)[C@@H]3NC(=O)[C@H](NC(=O)[C@@H]5NC(=O)[C@H](CC(N)=O)NC(=O)[C@H](NC(=O)[C@@H](CC(C)C)NC)[C@H](O)c5ccc(c(Cl)c5)O4)c4ccc(O)c(c4)-c4c(O)cc(O)cc4[C@H](C(=O)O)NC3=O)O[C@H](CO)[C@@H](O)[C@@H]2O)O[C@@H](C)[C@H]1O`, the MIC in assay [4] was 6.25 µg/mL (≈ 3.52 µM); in [5], 12.5 µg/mL (≈ 7.04 µM); in [6], 3.13 µg/mL (≈ 1.76 µM); in assay [7], more than 25 µg/mL; in assay [11], 6.25 µg/mL (≈ 3.52 µM); in assay [12] it was 3.13 µg/mL (≈ 1.76 µM).
Turning to `CCCCCCN[C@@]1(C)C[C@H](O[C@H]2[C@H](Oc3c4cc5cc3Oc3ccc(cc3Cl)[C@@H](O[C@H]3C[C@](C)(N)[C@H](O)[C@H](C)O3)[C@@H]3NC(=O)[C@H](NC(=O)[C@@H]5NC(=O)[C@H](CC(N)=O)NC(=O)[C@H](NC(=O)[C@@H](CC(C)C)NC)[C@H](O)c5ccc(c(Cl)c5)O4)c4ccc(O)c(c4)-c4c(O)cc(O)cc4[C@H](C(=O)O)NC3=O)O[C@H](CO)[C@@H](O)[C@@H]2O)O[C@@H](C)[C@H]1O`, the MIC was 1.56 µg/mL (≈ 0.93 µM) in assay [4]; more than 25 µg/mL in assay [5]; 0.78 µg/mL (≈ 0.465 µM) in [6]; more than 25 µg/mL in [7]; 3.13 µg/mL (≈ 1.87 µM) in assay [11]; 1.56 µg/mL (≈ 0.93 µM) in assay [12].
On to `CN[C@H](CC(C)C)C(=O)N[C@H]1C(=O)N[C@@H](CC(N)=O)C(=O)N[C@H]2C(=O)N[C@H]3C(=O)N[C@H](C(=O)N[C@@H](C(=O)O)c4cc(O)cc(O)c4-c4cc3ccc4O)[C@H](O[C@H]3C[C@](C)(N)[C@H](O)[C@H](C)O3)c3ccc(c(Cl)c3)Oc3cc2cc(c3O[C@@H]2O[C@H](CO)[C@@H](O)[C@H](O)[C@H]2O[C@H]2C[C@](C)(NCc3cccs3)[C@H](O)[C@H](C)O2)Oc2ccc(cc2Cl)[C@H]1O`, for which the MIC is 25 µg/mL (≈ 14.8 µM) in assay [4]; 12.5 µg/mL (≈ 7.4 µM) in [5]; 6.25 µg/mL (≈ 3.7 µM) in assay [6]; more than 25 µg/mL in [7]; more than 25 µg/mL in assay [11]; 25 µg/mL (≈ 14.8 µM) in assay [12].
Turning to `CCCCCCCCCCN[C@@]1(C)C[C@H](O[C@H]2[C@H](Oc3c4cc5cc3Oc3ccc(cc3Cl)[C@@H](O[C@H]3C[C@](C)(N)[C@H](O)[C@H](C)O3)[C@@H]3NC(=O)[C@H](NC(=O)[C@@H]5NC(=O)[C@H](CC(N)=O)NC(=O)[C@H](NC(=O)[C@@H](CC(C)C)NC)[C@H](O)c5ccc(c(Cl)c5)O4)c4ccc(O)c(c4)-c4c(O)cc(O)cc4[C@H](C(=O)O)NC3=O)O[C@H](CO)[C@@H](O)[C@@H]2O)O[C@@H](C)[C@H]1O`, the MIC in assay [4] was 6.25 µg/mL (≈ 3.61 µM); in [5], more than 25 µg/mL; in [6], 6.25 µg/mL (≈ 3.61 µM); in [7] it was more than 25 µg/mL; in [11] it was 6.25 µg/mL (≈ 3.61 µM); in assay [12] it was 6.25 µg/mL (≈ 3.61 µM).
